Measured values as given in patent US20070004660A1, “Synergistic Modulation of Flt3 Kinase Using Alkylquinolines and Alkylquinazolines” (priority 2005, published 2007).

What was measured:
[1] = tested on: MV4-11 cells; assay: Inhibition of MV4-11 cell proliferation (CellTiterGlo, 72 h); type: cell-based; details: Homo sapiens; 72 h growth inhibition; uncertainty ±20%
Description: MV4-11 cells cannot grow and survive without active FLT3ITD.
To measure proliferation inhibition by test compounds, the luciferase based CellTiterGlo reagent (Promega), which quantifies total cell number based on total cellular ATP concentration, was used. Cells are plated at 10,000 cells per well in 100 ul of in RPMI media containing penn/strep, 10% FBS and 1 ng/ml GM-CSF or 1 ng/ml IL-3 for MV4-11 and Baf3 cells respectively.
Compound dilutions or 0.1% DMSO (vehicle control) are added to cells and the cells are allowed to grow for 72 hours at standard cell growth conditions (37° C., 5% CO2). For activity measurements in MV4-11 cells grown in 50% plasma, cells were plated at 10,000 cells per well in a 1:1 mixture of growth media and human plasma (final volume of 100 μL). To measure total cell growth an equal volume of CellTiterGlo reagent was added to each well, according to the manufacturer's instructions, and luminescence was quantified. Total cell growth was quantified as the difference in luminescent counts (relative light units, RLU) of cell number at Day 0 compared to total cell number at Day 3 (72 hours of growth and/or compound treatment). One hundred percent inhibition of growth is defined as an RLU equivalent to the Day 0 reading. Zero percent inhibition was defined as the RLU signal for the DMSO vehicle control at Day 3 of growth. All data points are an average of triplicate samples. […] Inhibition and IC50 data analysis was done with GraphPad Prism using a non-linear regression fit with a multiparamater, sigmoidal dose-response (variable slope) equation.
MV4-11 cells express the FLT3 internal tandem duplication mutation, and thus are entirely dependent upon FLT3 activity for growth. […] In contrast, the Baf3 cell proliferation is driven by the cytokine IL-3 and thus are used as a non-specific toxicity control for test compounds.

[2] = target: T1, isolated kinase domain of the human FLT3 receptor (a.a. 571-993) (Homo sapiens, UniProt P36888); assay: FLT3 fluorescence polarization kinase assay; type: biochemical; details: 150 uM ATP; uncertainty ±10%
T1 construct: human FLT3 receptor (a.a. 571-993)
T1 sequence (P36888 571-993): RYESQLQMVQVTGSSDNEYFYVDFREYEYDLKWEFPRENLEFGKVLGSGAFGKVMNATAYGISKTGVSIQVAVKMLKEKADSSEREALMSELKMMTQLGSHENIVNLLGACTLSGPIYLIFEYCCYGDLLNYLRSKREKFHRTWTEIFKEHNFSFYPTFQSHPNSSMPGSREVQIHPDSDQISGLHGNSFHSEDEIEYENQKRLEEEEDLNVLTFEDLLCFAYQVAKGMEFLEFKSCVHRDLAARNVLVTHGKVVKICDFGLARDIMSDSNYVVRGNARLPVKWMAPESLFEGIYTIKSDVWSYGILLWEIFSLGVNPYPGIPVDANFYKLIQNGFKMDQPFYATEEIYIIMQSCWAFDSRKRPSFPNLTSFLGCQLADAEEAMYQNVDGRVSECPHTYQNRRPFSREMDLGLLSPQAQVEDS
Description: The FLT3 FP assay utilizes the fluorescein-labeled phosphopeptide and the anti-phosphotyrosine antibody included in the Panvera Phospho-Tyrosine Kinase Kit (Green) supplied by Invitrogen. When FLT3 phosphorylates polyGlu4Tyr, the fluorescein-labeled phosphopeptide is displaced from the anti-phosphotyrosine antibody by the phosphorylated poly Glu4Tyr, thus decreasing the FP value. The FLT3 kinase reaction is incubated at room temperature for 30 minutes under the following conditions: 10 nM FLT3 571-993, 20 ug/mL poly Glu4Tyr, 150 uM ATP, 5 mM MgCl2, 1% compound in DMSO. The kinase reaction is stopped with the addition of EDTA. The fluorescein-labeled phosphopeptide and the anti-phosphotyrosine antibody are added and incubated for 30 minutes at room temperature.
All data points are an average of triplicate samples. Inhibition and IC50 data analysis was done with GraphPad Prism using a non-linear regression fit with a multiparamater, sigmoidal dose-response (variable slope) equation.

Structure (SMILES) | IC50 [1] | IC50 [2]
CN1CCC(COc2ccc3c(C4CCN(C(=O)Nc5ccc(N6CCOCC6)nc5)CC4)ncnc3c2)CC1 [Example 108, 4-[7-(1-Methyl-piperidin-4-ylmethoxy)-quinazolin-4-yl]-piperidine-1-carboxylic acid (6-morpholin-4-yl-pyridin-3-yl)-amide] | 173 nM | 4 nM
CS(=O)(=O)NCCCOc1ccc2c(C3CCN(C(=O)Nc4ccc(N5CCCC5)nc4)CC3)ncnc2c1 [Example 86, 4-[7-(3-Methanesulfonylamino-propoxy)-quinazolin-4-yl]-piperidine-1-carboxylic acid (6-pyrrolidin-1-yl-pyridin-3-yl)-amide] | 17 nM | 1 nM
CC(C)Oc1ccc(NC(=O)N2CCC(c3ncnc4cc(N(C)C)ccc34)CC2)cc1 [Example 100, 4-(7-Dimethylamino-quinazolin-4-yl)-piperidine-1-carboxylic acid (4-isopropoxy-phenyl)-amide] | 36 nM | 80 nM
CC(C)Oc1ccc(NC(=O)N2CCC(c3ncnc4cc(NCCCN5CCN(C)CC5)ccc34)CC2)cc1 [Example 102, 4-{7-[3-(4-Methyl-piperazin-1-yl)-propylamino]-quinazolin-4-yl}-piperidine-1-carboxylic acid (4-isopropoxy-phenyl)-amide] | 18 nM | 5 nM
CC(C)Oc1ccc(NC(=O)N2CCC(c3ncnc4ccc(C#CCN5CCCCC5)cc34)CC2)cc1 [Example 14, 4-[6-(3-Piperidin-1-yl-prop-1-ynyl)-quinazolin-4-yl]-piperidine-1-carboxylic acid (4-isopropoxy-phenyl)-amide] | 23 nM | 53 nM
COc1cc2ncnc(C3CCN(C(=O)Nc4ccc(C5CCN(C(=O)OC(C)(C)C)CC5)cc4)CC3)c2cc1OC [Example 63, 4-(4-{[4-(6,7-Dimethoxy-quinazolin-4-yl)-piperidine-1-carbonyl]-amino}-phenyl)-piperidine-1-carboxylic acid tert-butyl ester] | 4100 nM | 2000 nM
O=C(Nc1ccc(N2CCOCC2)cc1)N1CCC(c2ncnc3cc(OCCCO)ccc23)CC1 [Example 77, 4-[7-(3-Hydroxy-propoxy)-quinazolin-4-yl]-piperidine-1-carboxylic acid (4-morpholin-4-yl-phenyl)-amide] | 139 nM | 103 nM
COc1cc2ncnc(C3CCN(C(=O)Nc4ccc(-c5cncnc5)cc4)CC3)c2cc1OC [Example 58, 4-(6,7-Dimethoxy-quinazolin-4-yl)-piperidine-1-carboxylic acid (4-pyrimidin-5-yl-phenyl)-amide] | 2000 nM | 2000 nM
O=C1CCCN1CCOc1ccc2c(C3CCN(C(=O)Nc4cnc(N5CCCC5)nc4)CC3)ncnc2c1 [Example 84, 4-{7-[2-(2-Oxo-pyrrolidin-1-yl)-ethoxy]-quinazolin-4-yl}-piperidine-1-carboxylic acid (2-pyrrolidin-1-yl-pyrimidin-5-yl)-amide] | 74 nM | 41 nM
O=C1CCCN1CCCOc1ccc2c(C3CCN(C(=O)Nc4ccc(N5CCCC5)nc4)CC3)ncnc2c1 [Example 89, 4-{7-[3-(2-Oxo-pyrrolidin-1-yl)-propoxy]-quinazolin-4-yl}-piperidine-1-carboxylic acid (6-pyrrolidin-1-yl-pyridin-3-yl)-amide] | 24 nM | 2 nM
COc1cc2ncnc(C3CCN(C(=O)Nc4ccc(-c5ccc(Cl)nc5)cc4)CC3)c2cc1OC [Example 60, 4-(6,7-Dimethoxy-quinazolin-4-yl)-piperidine-1-carboxylic acid [4-(6-chloro-pyridin-3-yl)-phenyl]-amide] | 1400 nM | 360 nM
O=C(Nc1ccc(N2CCOCC2)nc1)N1CCC(c2ncnc3cc(OCCN4CCOC4=O)ccc23)CC1 [Example 91, 4-{7-[2-(2-Oxo-oxazolidin-3-yl)-ethoxy]-quinazolin-4-yl}-piperidine-1-carboxylic acid (6-morpholin-4-yl-pyridin-3-yl)-amide] | 98 nM | 3 nM

Continued, values first:

IC50 [1] | IC50 [2] | Structure (SMILES)
48 nM | 15 nM | COc1cc2ncnc(C3CCN(C(=O)Nc4ccc(C(C)(C)C)cc4)CC3)c2cc1OC [Example 53, 4-(6,7-Dimethoxy-quinazolin-4-yl)-piperidine-1-carboxylic acid (4-tert-butyl-phenyl)-amide]
37 nM | 2 nM | CS(=O)(=O)NCCCOc1ccc2c(C3CCN(C(=O)Nc4ccc(OC5CCCC5)nc4)CC3)ncnc2c1 [Example 88, 4-[7-(3-Methanesulfonylamino-propoxy)-quinazolin-4-yl]-piperidine-1-carboxylic acid (6-cyclopentyloxy-pyridin-3-yl)-amide]
104 nM | 16 nM | CCN1CCN(CCCOc2ccc3c(C4CCN(C(=O)Nc5ccc(N6CCOCC6)cc5)CC4)ncnc3c2)CC1 [Example 115, 4-{7-[3-(4-Ethyl-piperazin-1-yl)-propoxy]-quinazolin-4-yl}-piperidine-1-carboxylic acid (4-morpholin-4-yl-phenyl)-amide]
139 nM | 14 nM | O=C(Nc1ccc(N2CCOCC2)cc1)N1CCC(c2ncnc3cc(OCCCN4CCN(CCO)CC4)ccc23)CC1 [Example 116, 4-(7-{3-[4-(2-Hydroxy-ethyl)-piperazin-1-yl]-propoxy}-quinazolin-4-yl)-piperidine-1-carboxylic acid (4-morpholin-4-yl-phenyl)-amide]
27 nM | 3 nM | CC(C)Oc1ccc(NC(=O)N2CCC(c3ncnc4cc(OCCCOS(C)(=O)=O)ccc34)CC2)cc1 [Example 121, Methanesulfonic acid 3-{4-[1-(4-isopropoxy-phenylcarbamoyl)-piperidin-4-yl]-quinazolin-7-yloxy}-propyl ester]
58 nM | 27 nM | O=C1CCCN1CCOc1ccc2c(C3CCN(C(=O)Nc4ccc(N5CCOCC5)cc4)CC3)ncnc2c1 [Example 85, 4-{7-[2-(2-Oxo-pyrrolidin-1-yl)-ethoxy]-quinazolin-4-yl}-piperidine-1-carboxylic acid (4-morpholin-4-yl-phenyl)-amide]
21 nM | 0.2 nM | O=C(Nc1ccc(N2CCCC2)nc1)N1CCC(c2ncnc3cc(OCCN4CCOC4=O)ccc23)CC1 [Example 92, 4-{7-[2-(2-Oxo-oxazolidin-3-yl)-ethoxy]-quinazolin-4-yl}-piperidine-1-carboxylic acid (6-pyrrolidin-1-yl-pyridin-3-yl)-amide]
533 nM | 200 nM | CC(C)Oc1ccc(NC(=O)N2CCC(c3ncnc4ccccc34)CC2)cc1 [Example 8, 4-Quinazolin-4-yl-piperidine-1-carboxylic acid (4-isopropoxy-phenyl)-amide]
725 nM | 150 nM | CCOc1ccc(NC(=O)N2CCC(c3ncnc4cc(OC)c(OC)cc34)CC2)cc1 [Example 44, 4-(6,7-Dimethoxy-quinazolin-4-yl)-piperidine-1-carboxylic acid (4-ethoxy-phenyl)-amide]
70 nM | 7 nM | CN1CCN(CCCOc2ccc3c(C4CCN(C(=O)Nc5ccc(N6CCOCC6)c(F)c5)CC4)ncnc3c2)CC1 [Example 81, 4-{7-[3-(4-Methyl-piperazin-1-yl)-propoxy]-quinazolin-4-yl}-piperidine-1-carboxylic acid (3-fluoro-4-morpholin-4-yl-phenyl)-amide]
7500 nM | > 10000 nM | COc1cc2ncnc(C3CCN(C(=O)Nc4ccc(C5=CCNCC5)cc4)CC3)c2cc1OC [Example 62, 4-(6,7-Dimethoxy-quinazolin-4-yl)-piperidine-1-carboxylic acid [4-(1,2,3,6-tetrahydro-pyridin-4-yl)-phenyl]-amide]
